Measured values: patent publication US9434711B2 (Janssen Pharmaceutica, NV, priority 2007, dated 2016)
pIC50: −log10 of the molar value. Like-named read-outs stand apart in the source and are kept apart here.

Molecular target: canine TRPM8 (Canis lupus familiaris, UniProt Q1A7N1)
Assay: In Vitro Canine TRPM8 Functional Assay (Ca2+ fluorescence, icilin activation)
Type: cell-based
Conditions: for pIC50: read-out: IC50; for inhibition at 0.5 µM: compound at 0.5 μM, read-out: % Inh @ 0.5; for inhibition at 0.2 µM: read-out: % Inh @ 0.2
Method in brief: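 Eight-point dose-response curves, each point averaging quadruplicate wells, gave EC50 or IC50. Canine TRPM8-expressing HEK293 cells, dye-loaded (Calcium 3), were pre-exposed 5 min to compound, then challenged with icilin at roughly EC80; intracellular Ca2+ read by FLIPR or FDSS fluorescence.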

[1] = HEK293 cells stably expressing canine TRPM8, icilin activation, eight-point dose-response
[2] = canine TRPM8, icilin activation
[3] = compound at 0.2 μM, canine TRPM8, icilin activation
[4] = 0.2 μM compound, HEK293 cells stably expressing canine TRPM8, icilin activation

Chain of canine TRPM8 (Q1A7N1 1-1104): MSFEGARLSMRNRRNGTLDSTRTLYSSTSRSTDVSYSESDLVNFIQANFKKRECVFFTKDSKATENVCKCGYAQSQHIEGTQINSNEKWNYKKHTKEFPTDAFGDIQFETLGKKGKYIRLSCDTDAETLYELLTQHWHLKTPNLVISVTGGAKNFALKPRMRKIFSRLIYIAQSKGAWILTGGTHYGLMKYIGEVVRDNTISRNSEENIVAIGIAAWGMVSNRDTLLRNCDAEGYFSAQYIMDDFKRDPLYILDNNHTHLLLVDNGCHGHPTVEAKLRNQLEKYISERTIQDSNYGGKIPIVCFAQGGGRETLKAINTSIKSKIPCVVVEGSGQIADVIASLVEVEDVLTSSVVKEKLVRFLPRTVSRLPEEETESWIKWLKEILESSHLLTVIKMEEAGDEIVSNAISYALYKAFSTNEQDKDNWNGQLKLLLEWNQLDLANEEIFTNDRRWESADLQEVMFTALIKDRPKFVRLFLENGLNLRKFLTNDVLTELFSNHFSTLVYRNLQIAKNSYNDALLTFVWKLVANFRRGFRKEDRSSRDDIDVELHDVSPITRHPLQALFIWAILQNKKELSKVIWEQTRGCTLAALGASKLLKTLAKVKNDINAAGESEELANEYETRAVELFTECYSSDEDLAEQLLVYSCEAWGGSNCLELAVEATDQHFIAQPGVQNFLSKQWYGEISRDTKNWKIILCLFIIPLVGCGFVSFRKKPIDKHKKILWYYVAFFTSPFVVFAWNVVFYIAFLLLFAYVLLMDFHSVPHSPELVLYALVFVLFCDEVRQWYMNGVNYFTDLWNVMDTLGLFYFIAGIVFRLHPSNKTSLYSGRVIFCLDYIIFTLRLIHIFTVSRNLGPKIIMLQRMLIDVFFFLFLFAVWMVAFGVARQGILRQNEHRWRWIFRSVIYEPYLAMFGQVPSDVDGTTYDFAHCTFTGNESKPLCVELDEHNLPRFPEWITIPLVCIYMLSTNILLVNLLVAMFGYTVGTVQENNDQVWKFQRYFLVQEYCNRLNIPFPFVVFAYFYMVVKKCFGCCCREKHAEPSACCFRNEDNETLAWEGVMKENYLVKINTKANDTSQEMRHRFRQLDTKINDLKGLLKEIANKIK

SMILES | pIC50 [1] | inhibition at 0.2 µM [3] | other results
CC(C)(C)OCCN(c1sc2ccccc2c1Cl)S(=O)(=O)c1ccccc1 [Compound 81, N-(2-tert-Butoxy-ethyl)-N-(3-chloro-benzo[b]thiophen-2-yl)-benzenesulfonamide] | 7.82 |  | inhibition at 0.5 µM [2]: 99%
Cc1nc(C)c(S(=O)(=O)N(Cc2ccc(F)c(C(F)(F)F)c2)c2sc3ccccc3c2C)s1 [Compound 75, N-(4-Fluoro-3-trifluoromethyl-benzyl)-N-(3-methyl-benzo[b]thiophen-2-yl)-2,4-dimethyl-thiazole-5-sulfonamide] | 7.74 | 98% | 
Cc1c(N(Cc2ccc(F)cc2)S(=O)(=O)c2ccc(F)c(F)c2)sc2ccccc12 [Compound 826, N-(4-Fluoro-benzyl)-N-(3-methyl-benzo[b]thiophen-2-yl)-3,4-difluoro-benzenesulfonamide] |  |  | inhibition at 0.2 µM [4]: 97%; pIC50 (HEK293 cells stably expressing canine TRPM8, icilin activation, average of two or more determinations): 7.62
CCCCN(c1sc2ccccc2c1C(=O)N(C)C)S(=O)(=O)c1ccc(C(=O)OC)cc1 [Compound 467, N-(Butyl)-N-(3-dimethyl-carbamoyl-benzo[b]thiophen-2-yl)-4-carbomethoxy-benzenesulfonamide] | 7.70 |  | % Inh @ 0.2 (μM) [3]: 100%
CCS(=O)(=O)N(CCSC)c1sc2ccccc2c1C [Compound 108, N-(3-Methyl-benzo[b]thiophen-2-yl)-N-(2-methylsulfanyl-ethyl)-ethanesulfonamide] |  | 71% | 
COC(=O)CCS(=O)(=O)N(CCC1CC1)c1sc2ccccc2c1C [Compound 600, N-(2-Cyclopropyl-ethyl)-N-(3-methyl-benzo[b]thiophen-2-yl)-2-carbomethoxy-ethanesulfonamide] | 8.05 | 101% | 
CSc1ncccc1S(=O)(=O)N(Cc1ccc(F)c(C(F)(F)F)c1)c1sc2ccccc2c1C [Compound 377, N-(3-Methyl-benzo[b]thiophen-2-yl)-N-(4-fluoro-3-trifluoromethyl-benzyl)-2-thiomethyl-pyridin-3-yl-sulfonamide] |  |  | % Inh @ 0.2 (μM) [3]: 65%
CC#CCCN(c1sc2ccccc2c1C)S(=O)(=O)CC [Compound 107, N-(3-Methyl-benzo[b]thiophen-2-yl)-N-(pent-3-ynyl)-ethanesulfonamide] |  | 72% | 
Cc1c(N(Cc2ccc(C(F)(F)F)c(F)c2)S(=O)(=O)c2cccs2)sc2ccccc12 [Compound 38, N-(3-Fluoro-4-trifluoromethyl-benzyl)-N-(3-methyl-benzo[b]thiophen-2-yl)-thiophene-2-sulfonamide] | 8.52 |  | inhibition at 0.5 µM [2]: 97%
Cc1c(N(Cc2ccc(F)c(C(F)(F)F)c2)S(=O)(=O)CCC(C)(C)O)sc2ccccc12 [Compound 725, N-(4-Fluoro-3-trifluoromethyl-benzyl)-N-(3-methyl-benzo[b]thiophen-2-yl)-3-hydroxy-3-methyl-butane-1-sulfonamide] | 8.11 | 102% | 
CC(C)(C)OCCN(c1sc2ccccc2c1Br)S(=O)(=O)c1ccccc1 [Compound 234, N-(3-Bromo-benzo[b]thiophen-2-yl)-N-(2-tert-butoxy-ethyl)-benzenesulfonamide] | 8.00 |  | inhibition at 0.5 µM [2]: 93%
Cc1c(N(CCOC(C)(C)C)S(=O)(=O)c2ccccc2)sc2ccccc12 [Compound 100, N-(2-tert-Butoxy-ethyl)-N-(3-methyl-benzo[b]thiophen-2-yl)-benzenesulfonamide] | 8.17 | 103% | 
CCS(=O)(=O)N(Cc1ccc(F)c(OC)c1)c1sc2ccccc2c1C(C)(C)O [Compound 838, N-(4-Fluoro-3-methoxybenzyl)-N-[3-(1-hydroxy-1-methyl-ethyl)-benzo[b]thiophen-2-yl]-ethanesulfonamide] |  |  | inhibition at 0.2 µM [4]: 101%
O=S(=O)(c1ccc(C(F)(F)F)cc1)N(Cc1ccc(F)c(F)c1)c1cc2ccccc2s1 [Compound 132, N-(Benzo[b]thiophen-2-yl)-N-(3,4-difluoro-benzyl)-4-trifluoromethyl-benzenesulfonamide] |  |  | inhibition at 0.5 µM [2]: 56%
COC(=O)c1ccc(S(=O)(=O)N(Cc2ccc(OC(F)(F)F)cc2)c2sc3ccccc3c2C2CCC2)cc1 [Compound 754, N-(3-Cyclobutyl-benzo[b]thiophen-2-yl)-N-(4-trifluoromethoxy-benzyl)-4-carbomethoxy-benzenesulfonamide] | 7.79 | 82% | 
Cc1c(N(Cc2ccc(F)c(F)c2)S(=O)(=O)c2cccc(O)c2)sc2ccccc12 [Compound 286, N-(3,4-Difluoro-benzyl)-N-(3-methyl-benzo[b]thiophen-2-yl)-3-hydroxy-benzenesulfonamide] | 8.15 |  | inhibition at 0.5 µM [2]: 99%
CC(=O)c1c(N(Cc2ccc(OC(F)(F)F)cc2)S(=O)(=O)c2ccc(C#N)cc2)sc2ccccc12 [Compound 772, N-(3-Acetyl-benzo[b]thiophen-2-yl)-N-(4-trifluoromethoxy-benzyl)-4-cyano-benzenesulfonamide] | 8.24 | 95% | 
Cc1c(N(Cc2cccc3cccnc23)S(=O)(=O)c2cccc3cnccc23)sc2ccccc12 [Compound 29, N-(3-Methyl-benzo[b]thiophen-2-yl)-N-(quinolin-8-ylmethyl)-isoquinoline-5-sulfonamide] | 7.48 |  | inhibition at 0.5 µM [2]: 99%
Cc1c(N(CCC2CC2)S(=O)(=O)CC(F)(F)F)sc2ccccc12 [Compound 670, N-(2-Cyclopropyl-ethyl)-N-(3-methyl-benzo[b]thiophen-2-yl)-2,2,2-trifluoro-ethanesulfonamide] | 7.41 | 99.1% | 
O=S(=O)(c1cnccc1Cl)N(Cc1ccc(F)c(C(F)(F)F)c1)c1sc2ccccc2c1Cl [Compound 338, N-(3-Chloro-benzo[b]thiophen-2-yl)-N-(4-fluoro-3-trifluoromethyl-benzyl)-4-chloro-pyridin-3-ylsulfonamide] | 7.54 |  | 

More lines, main results first:

pIC50 [1] | inhibition at 0.2 µM [3] | SMILES | other results
7.21 | 93% | CNCc1c(N(Cc2ccc(F)c(C(F)(F)F)c2)S(=O)(=O)c2ccccc2)sc2ccccc12 [Compound 417, N-(4-Fluoro-3-trifluoromethyl-benzyl)-N-(3-methylaminomethyl-benzo[b]thiophen-2-yl)-benzenesulfonamide] | 
7.59 | 101% | CS(=O)(=O)Nc1ccc(S(=O)(=O)N(CCC(F)(F)F)c2sc3ccccc3c2Br)cc1Br [Compound 683, 3-Bromo-N-(3-bromo-benzo[b]thiophen-2-yl)-4-methanesulfonylamino-N-(3,3,3-trifluoro-propyl)-benzenesulfonamide] | 
7.72 | 93% | CCS(=O)(=O)N(CCC(F)(F)F)c1sc2ccccc2c1C [Compound 106, N-(3-Methyl-benzo[b]thiophen-2-yl)-N-(3,3,3-trifluoro-propyl)-ethanesulfonamide] | 
7.77 | 96% | Cc1c(N(CCCC(F)(F)F)S(=O)(=O)c2ccc(C(=O)O)cc2)sc2ccccc12 [Compound 410, N-(3-Methyl-benzo[b]thiophen-2-yl)-N-(4,4,4-trifluoro-butyl)-4-carboxy-benzenesulfonamide] | 
8.21 | 101% | Cc1c(N(CCC(F)(F)F)S(=O)(=O)c2ccc(C(=O)O)cc2F)sc2ccccc12 [Compound 590, N-(3-Methyl-benzo[b]thiophen-2-yl)-N-(3,3,3-trifluoro-propyl)-2-fluoro-4-carboxy-benzenesulfonamide] | 
8.10 | 98% | COC(=O)c1cccc(S(=O)(=O)N(Cc2ccc(F)c(C(F)(F)F)c2)c2sc3ccccc3c2C)c1 [Compound 137, N-(3-Methyl-benzo[b]thiophen-2-yl)-N-(4-fluoro-3-trifluoromethyl-benzyl)-3-carbomethoxy-benzenesulfonamide] | 
8.38 | 102% | Cc1c(N(CCCCC(F)(F)F)S(=O)(=O)c2cccc3nccnc23)sc2ccccc12 [Compound 721, N-(3-Methyl-benzo[b]thiophen-2-yl)-N-(5,5,5-trifluoro-pentyl)-quinoxalin-5-yl-sulfonamide] | 
8.13 | 101% | Cc1c(N(CCC2CC2)S(=O)(=O)c2ccccc2)sc2ccccc12 [Compound 614, N-(2-Cyclopropyl-ethyl)-N-(3-methyl-benzo[b]thiophen-2-yl)-benzenesulfonamide] | 
7.24 | 99% | COc1cc(NS(C)(=O)=O)ccc1S(=O)(=O)N(Cc1ccc(F)c(C(F)(F)F)c1)c1sc2ccccc2c1Cl [Compound 744, N-(3-Chloro-benzo[b]thiophen-2-yl)-N-(4-fluoro-3-trifluoromethyl-benzyl)-4-methanesulfonylamino-2-methoxy-benzenesulfonamide] | 
7.07 | 89% | O=S(=O)(c1ccccc1)N(CC1CC1)c1sc2ccccc2c1Br [Compound 255, N-(3-Bromo-benzo[b]thiophen-2-yl)-N-(cyclopropylmethyl)-benzenesulfonamide] | 
7.33 | 96% | CCCCN(c1sc2ccccc2c1C(C)=O)S(=O)(=O)c1ccc(Br)cc1 [Compound 503, N-(3-Acetyl-benzo[b]thiophen-2-yl)-N-(butyl)-4-bromo-benzenesulfonamide] | 
7.85 | 94% | CCCCN(c1sc2ccccc2c1Br)S(=O)(=O)c1ccc(-c2noc(=O)[nH]2)cc1 [Compound 443, N-(3-Bromo-benzo[b]thiophen-2-yl)-N-(butyl)-4-(5-oxo-4,5-dihydro-[1,2,4]oxadiazol-3-yl)-benzenesulfonamide] | 
7.58 | 94% | CCCCN(c1sc2ccccc2c1C(C)=O)S(=O)(=O)c1ccc(C(=O)OC)cc1 [Compound 339, N-(3-Acetyl-benzo[b]thiophen-2-yl)-N-(butyl)-4-carbomethoxy-benzenesulfonamide] | 
